Test results from US20150119352A1, “DINUCELOSIDE POLYPHOSPHATES FOR THE TREATMENT OF PAIN” (GlobalAcorn Ltd., priority 2012, published 2015).
“Also recorded” adds a separate entry of the source.

Key:
[1] = target: T1, rat homomeric P2X2 receptors (Rattus norvegicus, UniProt P49653); test: Whole-cell patch clamp on HEK cells expressing rat homomeric P2X2 receptors; assay type: cell-based; settings: 1 μM; 10 μM ATP
T1 construct: expressed in transfected cells; host or cells: HEK 293
T1 sequence (P49653 1-472): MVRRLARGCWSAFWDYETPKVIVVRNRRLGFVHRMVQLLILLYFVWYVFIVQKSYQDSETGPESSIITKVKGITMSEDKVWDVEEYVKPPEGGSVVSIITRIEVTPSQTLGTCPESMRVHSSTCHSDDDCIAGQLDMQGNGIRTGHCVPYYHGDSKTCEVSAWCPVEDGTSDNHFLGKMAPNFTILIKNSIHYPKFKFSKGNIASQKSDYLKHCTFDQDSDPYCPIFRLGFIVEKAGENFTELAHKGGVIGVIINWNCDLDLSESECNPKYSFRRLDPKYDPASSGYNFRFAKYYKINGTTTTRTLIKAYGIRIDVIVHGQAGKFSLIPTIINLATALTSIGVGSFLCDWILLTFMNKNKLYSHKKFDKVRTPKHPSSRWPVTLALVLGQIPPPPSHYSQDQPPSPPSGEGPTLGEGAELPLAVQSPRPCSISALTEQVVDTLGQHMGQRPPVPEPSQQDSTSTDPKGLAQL
Protocol: (§1) FIG. 4. […] A. Example traces of responses induced by 10 μM ATP applied for 2 s every 2 min to HEK cells expressing rat homomeric P2X2 receptors in the presence and absence of 1 μM AppNHppA. B. Comparison of currents induced by the full agonist of P2X2 receptors, ATP, in the presence of 1 μM AppNHppA (right) and absence (left). C. The time course of the current in the presence and absence of 1 μM AppNHppA. D. Comparison of currents induced by the full agonist of rat homomeric P2X4 and P2X7 receptors, ATP, in the presence of 1 μM AppNHppA (right) and absence (left). Experiments were performed as in FIG. 2.
(§2) Trigeminal, nodose, DRG neurons or HEK cells were recorded in the whole-cell configuration while being continuously superfused (at 2 mL/min) with control solution containing (in mM): 152 NaCl, 5 KCl, 1 MgCl2, 2 CaCl2, 10 glucose, and 10 HEPES; pH was adjusted to 7.4 with NaOH and osmolarity was adjusted to 320 mOsM with glucose. […] Responses to selective P2X3 receptor agonist α,β-methylene-ATP (α,β-meATP; resistant to ectoATPase hydrolysis, Sigma-Aldrich) were measured using an EPC-9 amplifier and HEKA Patch Master software (HEKA Electronik, Germany). Cells were voltage-clamped at −70 mV. In most cells, series resistance was compensated by 80%. […]

[2] = target: T2, rat homomeric P2X7 receptors (Rattus norvegicus, UniProt Q64663); test: Whole-cell patch clamp, rat homomeric P2X7 receptors; assay type: cell-based; settings: 1 μM; ATP
T2 construct: expressed in transfected cells
T2 sequence (Q64663 1-595): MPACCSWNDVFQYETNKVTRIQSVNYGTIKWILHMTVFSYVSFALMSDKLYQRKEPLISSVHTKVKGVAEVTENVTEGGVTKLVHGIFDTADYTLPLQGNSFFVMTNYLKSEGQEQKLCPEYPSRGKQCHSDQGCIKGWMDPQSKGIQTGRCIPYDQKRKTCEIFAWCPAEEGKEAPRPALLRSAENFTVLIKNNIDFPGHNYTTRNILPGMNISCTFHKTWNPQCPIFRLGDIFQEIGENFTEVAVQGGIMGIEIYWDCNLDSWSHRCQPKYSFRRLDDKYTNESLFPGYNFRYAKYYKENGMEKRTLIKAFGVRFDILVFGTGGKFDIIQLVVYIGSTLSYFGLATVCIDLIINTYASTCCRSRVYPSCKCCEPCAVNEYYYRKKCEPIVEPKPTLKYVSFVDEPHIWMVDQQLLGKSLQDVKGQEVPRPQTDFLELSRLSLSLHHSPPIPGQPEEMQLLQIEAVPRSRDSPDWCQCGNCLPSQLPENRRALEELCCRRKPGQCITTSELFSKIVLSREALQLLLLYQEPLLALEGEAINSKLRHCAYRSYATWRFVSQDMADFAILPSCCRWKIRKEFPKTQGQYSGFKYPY
Protocol: as §1, §2

Nc1ncnc2c1ncn2[C@@H]1O[C@H](COP(=O)(O)OP(=O)(O)NP(=O)(O)OP(=O)(O)OC[C@H]2O[C@@H](n3cnc4c(N)ncnc43)C(O)C2O)C(O)C1O (stereo in doubt) [AppNHppA]
effect on P2X2 receptor-mediated currents [1]: not observed to produce any effects; also recorded: non-inhibitory effect | effect on P2X7 receptor-mediated currents [2]: not observed to produce any effects; also recorded: non-inhibitory effect
